In paper doi:10.1101/2023.10.20.563248v1 (biorxiv, 2023):

Assays:
Conditions in all cases: 1 µM; inhibitor
GRK4 = GRK4 (Homo sapiens, UniProt P32298)
FAK = FAK (Homo sapiens, UniProt Q05397)
GSG2 = GSG2 (Homo sapiens, UniProt Q8TF76)
BUB1B = BUB1B (Homo sapiens, UniProt O60566)
CDK6/CycD3 = CDK6/CycD3 (Homo sapiens, UniProt Q00534)
BMX = BMX (Homo sapiens, UniProt P51813)
CDK4/CycD3 = CDK4/CycD3 (Homo sapiens, UniProt P11802)
SRPK1 = SRPK1 (Homo sapiens, UniProt Q96SB4)
EPHA3 = EPHA3 (Homo sapiens, UniProt P29320)
MAP3K9 = MAP3K9 (Homo sapiens, UniProt P80192)
RON = RON (Homo sapiens, UniProt Q04912)
Chain of RON (Q04912 whole entry): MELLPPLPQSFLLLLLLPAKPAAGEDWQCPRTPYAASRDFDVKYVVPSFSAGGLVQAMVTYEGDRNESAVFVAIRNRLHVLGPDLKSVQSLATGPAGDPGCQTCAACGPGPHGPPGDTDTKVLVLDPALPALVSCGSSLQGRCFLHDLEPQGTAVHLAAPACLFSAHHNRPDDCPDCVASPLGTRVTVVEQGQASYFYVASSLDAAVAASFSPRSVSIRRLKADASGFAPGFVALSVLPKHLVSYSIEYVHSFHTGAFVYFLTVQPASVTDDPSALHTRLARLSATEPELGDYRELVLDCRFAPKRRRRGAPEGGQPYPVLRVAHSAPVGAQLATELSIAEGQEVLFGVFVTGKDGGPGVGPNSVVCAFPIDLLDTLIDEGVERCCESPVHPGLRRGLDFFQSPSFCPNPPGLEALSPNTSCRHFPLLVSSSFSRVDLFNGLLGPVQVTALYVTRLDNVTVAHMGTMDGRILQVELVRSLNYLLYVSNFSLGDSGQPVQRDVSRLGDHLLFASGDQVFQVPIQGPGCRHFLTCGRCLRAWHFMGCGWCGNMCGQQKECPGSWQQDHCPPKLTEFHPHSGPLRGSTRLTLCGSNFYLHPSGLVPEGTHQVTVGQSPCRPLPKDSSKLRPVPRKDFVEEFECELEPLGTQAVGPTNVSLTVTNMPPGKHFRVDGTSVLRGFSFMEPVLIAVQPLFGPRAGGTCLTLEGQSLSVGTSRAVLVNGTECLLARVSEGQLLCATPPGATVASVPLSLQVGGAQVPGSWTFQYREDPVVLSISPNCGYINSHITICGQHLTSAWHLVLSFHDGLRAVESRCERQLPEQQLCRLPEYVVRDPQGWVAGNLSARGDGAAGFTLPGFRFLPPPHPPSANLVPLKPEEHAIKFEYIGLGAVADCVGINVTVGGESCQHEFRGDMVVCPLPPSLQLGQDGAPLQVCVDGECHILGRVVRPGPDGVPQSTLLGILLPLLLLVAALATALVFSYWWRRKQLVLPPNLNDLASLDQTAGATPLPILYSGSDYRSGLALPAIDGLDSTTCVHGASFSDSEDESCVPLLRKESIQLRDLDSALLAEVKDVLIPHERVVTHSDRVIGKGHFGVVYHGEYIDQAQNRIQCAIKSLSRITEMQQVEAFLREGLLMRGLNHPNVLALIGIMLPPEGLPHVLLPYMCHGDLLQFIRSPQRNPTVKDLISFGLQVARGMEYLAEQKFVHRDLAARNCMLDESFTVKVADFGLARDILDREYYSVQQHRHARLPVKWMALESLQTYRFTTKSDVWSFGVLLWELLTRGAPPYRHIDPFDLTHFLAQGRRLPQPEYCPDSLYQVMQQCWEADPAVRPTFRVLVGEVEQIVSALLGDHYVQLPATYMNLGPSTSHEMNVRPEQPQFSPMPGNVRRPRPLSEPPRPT

CDK11B = CDK11B (Homo sapiens, UniProt P21127)
CSK = CSK (Homo sapiens, UniProt P41240)
SNK = SNK (Homo sapiens, UniProt Q9NYY3)
DAPK3 = DAPK3 (Homo sapiens, UniProt O43293)
Chain of DAPK3 (O43293 whole entry): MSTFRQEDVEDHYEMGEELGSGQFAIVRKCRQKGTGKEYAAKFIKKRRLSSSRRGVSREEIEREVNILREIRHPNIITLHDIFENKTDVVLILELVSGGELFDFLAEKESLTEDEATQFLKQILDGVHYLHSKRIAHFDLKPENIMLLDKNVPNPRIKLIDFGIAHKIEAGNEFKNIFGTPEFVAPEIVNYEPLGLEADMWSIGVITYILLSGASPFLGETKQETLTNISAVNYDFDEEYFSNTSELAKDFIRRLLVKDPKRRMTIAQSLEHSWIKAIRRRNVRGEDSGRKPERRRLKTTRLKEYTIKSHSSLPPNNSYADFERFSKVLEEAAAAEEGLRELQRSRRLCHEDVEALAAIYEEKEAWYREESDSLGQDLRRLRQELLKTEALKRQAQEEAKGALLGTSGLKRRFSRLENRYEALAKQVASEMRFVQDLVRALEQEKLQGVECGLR

CHK1 = CHK1 (Homo sapiens, UniProt O14757)
HRI = HRI (Homo sapiens, UniProt Q9BQI3)
CDK3/CycC = CDK3/CycC (Homo sapiens, UniProt Q00526)
PRKX = PRKX (Homo sapiens, UniProt P51817)
HIPK1 = HIPK1 (Homo sapiens, UniProt Q86Z02)
LCK = LCK (Homo sapiens, UniProt P06239)
ASK1 = ASK1 (Homo sapiens, UniProt Q99683)
MUSK = MUSK (Homo sapiens, UniProt O15146)
MAP4K2 = MAP4K2 (Homo sapiens, UniProt Q12851)
NDR2 = NDR2 (Homo sapiens, UniProt Q9Y2H1)
Chain of NDR2 (Q9Y2H1 whole entry): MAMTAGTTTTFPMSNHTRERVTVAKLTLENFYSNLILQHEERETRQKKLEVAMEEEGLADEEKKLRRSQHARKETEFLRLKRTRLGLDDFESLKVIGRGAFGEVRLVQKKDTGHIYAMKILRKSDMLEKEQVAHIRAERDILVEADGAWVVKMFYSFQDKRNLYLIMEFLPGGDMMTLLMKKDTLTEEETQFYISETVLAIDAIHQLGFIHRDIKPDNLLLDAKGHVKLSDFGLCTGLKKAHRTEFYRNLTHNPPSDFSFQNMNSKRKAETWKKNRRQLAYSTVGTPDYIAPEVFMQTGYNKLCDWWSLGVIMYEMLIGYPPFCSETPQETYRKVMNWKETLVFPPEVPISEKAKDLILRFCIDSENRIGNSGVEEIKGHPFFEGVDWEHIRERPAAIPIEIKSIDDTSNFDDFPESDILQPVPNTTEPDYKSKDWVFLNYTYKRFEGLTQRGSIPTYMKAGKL

MYLK = MYLK (Homo sapiens, UniProt Q15746)
SRMS = SRMS (Homo sapiens, UniProt Q9H3Y6)
Chain of SRMS (Q9H3Y6 whole entry): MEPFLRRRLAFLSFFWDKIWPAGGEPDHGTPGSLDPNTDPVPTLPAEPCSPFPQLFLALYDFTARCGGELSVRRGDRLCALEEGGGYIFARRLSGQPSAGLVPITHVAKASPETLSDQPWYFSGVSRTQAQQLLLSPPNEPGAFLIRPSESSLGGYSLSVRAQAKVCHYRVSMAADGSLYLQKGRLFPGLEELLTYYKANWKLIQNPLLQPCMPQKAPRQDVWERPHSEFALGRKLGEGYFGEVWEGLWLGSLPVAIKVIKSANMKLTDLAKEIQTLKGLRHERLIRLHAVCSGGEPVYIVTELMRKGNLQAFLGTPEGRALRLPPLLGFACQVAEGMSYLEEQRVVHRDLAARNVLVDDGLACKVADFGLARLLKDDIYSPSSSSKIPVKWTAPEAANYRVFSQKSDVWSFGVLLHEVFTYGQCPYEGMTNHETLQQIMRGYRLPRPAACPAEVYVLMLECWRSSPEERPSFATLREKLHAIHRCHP

CK1d = CK1d (Homo sapiens, UniProt P48730)
ACVR2A = ACVR2A (Homo sapiens, UniProt P27037)
DYRK1A = DYRK1A (Homo sapiens, UniProt Q13627)
CDK6 = CDK6 (Homo sapiens, UniProt Q00534)

Chain of CDK4/CycD3 (P11802 whole entry): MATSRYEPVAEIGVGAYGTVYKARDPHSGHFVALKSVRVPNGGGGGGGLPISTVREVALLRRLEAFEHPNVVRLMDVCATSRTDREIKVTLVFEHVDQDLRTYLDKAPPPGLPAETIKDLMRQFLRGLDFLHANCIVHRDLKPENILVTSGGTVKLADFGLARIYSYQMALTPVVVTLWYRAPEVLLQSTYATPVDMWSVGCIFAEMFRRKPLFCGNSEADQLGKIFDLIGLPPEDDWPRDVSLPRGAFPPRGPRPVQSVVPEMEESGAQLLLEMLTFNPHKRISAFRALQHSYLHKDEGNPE
Chain of CDK4/CycD3 (P30281 whole entry partner): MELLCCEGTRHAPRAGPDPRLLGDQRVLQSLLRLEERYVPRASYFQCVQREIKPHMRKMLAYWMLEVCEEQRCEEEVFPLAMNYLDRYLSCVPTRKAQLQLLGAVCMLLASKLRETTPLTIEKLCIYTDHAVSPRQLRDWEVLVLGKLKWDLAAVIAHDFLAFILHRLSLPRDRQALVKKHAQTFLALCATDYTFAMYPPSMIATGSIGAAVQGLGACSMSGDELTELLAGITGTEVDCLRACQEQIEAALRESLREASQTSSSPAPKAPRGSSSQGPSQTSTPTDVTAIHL
Chain of FAK (Q05397 whole entry): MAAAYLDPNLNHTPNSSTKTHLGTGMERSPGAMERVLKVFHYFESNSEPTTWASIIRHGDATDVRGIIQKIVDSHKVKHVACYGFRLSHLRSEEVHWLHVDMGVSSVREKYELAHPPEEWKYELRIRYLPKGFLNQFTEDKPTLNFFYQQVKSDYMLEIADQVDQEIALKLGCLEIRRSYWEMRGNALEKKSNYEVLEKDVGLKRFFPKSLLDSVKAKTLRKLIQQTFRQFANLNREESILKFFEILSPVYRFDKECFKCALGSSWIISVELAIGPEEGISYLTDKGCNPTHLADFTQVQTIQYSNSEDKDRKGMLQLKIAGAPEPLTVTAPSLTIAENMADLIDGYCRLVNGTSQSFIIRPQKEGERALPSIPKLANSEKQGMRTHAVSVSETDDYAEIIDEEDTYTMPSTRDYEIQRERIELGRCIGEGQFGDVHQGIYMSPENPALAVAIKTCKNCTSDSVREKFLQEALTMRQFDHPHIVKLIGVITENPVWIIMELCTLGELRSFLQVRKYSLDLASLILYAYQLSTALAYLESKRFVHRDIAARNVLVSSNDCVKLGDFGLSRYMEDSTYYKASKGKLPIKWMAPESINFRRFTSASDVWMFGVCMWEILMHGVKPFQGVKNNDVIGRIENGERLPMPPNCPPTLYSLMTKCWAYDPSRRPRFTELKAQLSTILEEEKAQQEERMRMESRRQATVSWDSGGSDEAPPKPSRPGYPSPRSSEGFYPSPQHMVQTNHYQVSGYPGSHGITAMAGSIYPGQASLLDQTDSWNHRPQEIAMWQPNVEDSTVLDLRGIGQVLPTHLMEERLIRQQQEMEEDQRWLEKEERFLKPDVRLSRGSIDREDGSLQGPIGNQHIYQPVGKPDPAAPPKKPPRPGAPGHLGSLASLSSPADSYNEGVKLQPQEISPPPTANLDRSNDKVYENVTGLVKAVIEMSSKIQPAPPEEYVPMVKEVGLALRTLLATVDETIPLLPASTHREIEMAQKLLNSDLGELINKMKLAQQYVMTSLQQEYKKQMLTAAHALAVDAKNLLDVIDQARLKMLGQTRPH
Chain of GRK4 (P32298 whole entry): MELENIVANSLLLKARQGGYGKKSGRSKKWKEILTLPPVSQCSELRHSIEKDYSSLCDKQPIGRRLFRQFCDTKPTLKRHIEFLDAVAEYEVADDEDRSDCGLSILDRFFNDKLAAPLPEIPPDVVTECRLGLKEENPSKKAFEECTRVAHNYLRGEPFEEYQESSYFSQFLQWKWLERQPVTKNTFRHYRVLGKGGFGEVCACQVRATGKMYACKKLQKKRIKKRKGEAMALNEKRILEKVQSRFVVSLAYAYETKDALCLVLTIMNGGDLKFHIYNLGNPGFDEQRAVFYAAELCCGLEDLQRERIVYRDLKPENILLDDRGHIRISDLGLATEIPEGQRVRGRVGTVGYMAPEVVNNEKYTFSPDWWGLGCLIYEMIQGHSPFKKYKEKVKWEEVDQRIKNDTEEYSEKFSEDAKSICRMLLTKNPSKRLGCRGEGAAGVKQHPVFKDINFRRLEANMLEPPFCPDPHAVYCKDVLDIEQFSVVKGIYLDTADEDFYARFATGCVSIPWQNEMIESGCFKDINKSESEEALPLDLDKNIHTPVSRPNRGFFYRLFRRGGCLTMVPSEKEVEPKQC

- 21c Remaining activity, percent of control [%] (GRK4): 112.1%
- 21c Remaining activity, percent of control [%] (FAK): 91.4%
- 21c Remaining activity, percent of control [%] (GSG2): 108.1%
- 21c Remaining activity, percent of control [%] (BUB1B): 101.6%
- 21c Remaining activity, percent of control [%] (CDK6/CycD3): 85.3%
- 21c Remaining activity, percent of control [%] (BMX): 84.8%
- 21c Remaining activity, percent of control [%] (CDK4/CycD3): 111.1%
- 21c Remaining activity, percent of control [%] (SRPK1): 101.4%
- 21c Remaining activity, percent of control [%] (EPHA3): 97.7%
- 21c Remaining activity, percent of control [%] (MAP3K9): 95.7%
- 21c Remaining activity, percent of control [%] (RON): 94.5%
- 21c Remaining activity, percent of control [%] (CDK11B): 91.2%
- 21c Remaining activity, percent of control [%] (CSK): 73.5%
- 21c Remaining activity, percent of control [%] (SNK): 78.3%
- 21c Remaining activity, percent of control [%] (DAPK3): 107.0%
- 21c Remaining activity, percent of control [%] (CHK1): 112.0%
- 21c Remaining activity, percent of control [%] (HRI): 98.2%
- 21c Remaining activity, percent of control [%] (CDK3/CycC): 87.0%
- 21c Remaining activity, percent of control [%] (PRKX): 93.9%
- 21c Remaining activity, percent of control [%] (HIPK1): 97.2%
- 21c Remaining activity, percent of control [%] (LCK): 92.0%
- 21c Remaining activity, percent of control [%] (ASK1): 97.7%
- 21c Remaining activity, percent of control [%] (MUSK): 83.0%
- 21c Remaining activity, percent of control [%] (MAP4K2): 112.8%
- 21c Remaining activity, percent of control [%] (NDR2): 93.9%
- 21c Remaining activity, percent of control [%] (MYLK): 68.9%
- 21c Remaining activity, percent of control [%] (SRMS): 81.5%
- 21c Remaining activity, percent of control [%] (CK1d): 98.8%
- 21c Remaining activity, percent of control [%] (ACVR2A): 95.3%
- 21c Remaining activity, percent of control [%] (DYRK1A): 82.2%
- 21c Remaining activity, percent of control [%] (CDK6): 105.2%
SMILES: O=C1NCCCCCNc2nc(c3ccccc3n2)Nc2cc1[nH]n2 [21c, (Z)-3^1H-2,5,11-triaza-1(4,2)-quinazolina-3(3,5)-pyrazolacycloundecaphan-4-one]
